Patent publication US20220380341A1, “INHIBITORS OF HIV-1 NEF FOR THE TREATMENT OF HIV DISEASE” (priority 2018, published 2022)
pKd: −log10 of the molar value. Read-outs that look alike come from different tables or passages of the source.

Legend:
[1] = target: HIV-1 NefNL4-3 (Human immunodeficiency virus type 1 group M subtype B, UniProt P03406, A33V/T15A/T51N/V11I); experiment: Surface plasmon resonance binding to recombinant full-length Nef (NL4-3); conditions: for T, minutes (residence time): 2-step induced fit, T = 1/koff2; for RU30/RUNef (extent of binding): response units at 30 μM relative to Nef immobilized on the SPR chip; for Nef NL4-3 Binding, SPR 1:1 or 2-site fitting KD1: 1:1 Langmuir fit where the KD2 cell says '1 to 1 fitting', else 2-site fit
[2] = system: TZM-bl cell line; type: cell-based; conditions: human, 1 μM
Summary of the method: (§1)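 Read-out is luciferase from an integrated HIV-1 LTR reporter in TZM-bl cells, 48 h after HIV-1NL4-3 infection in the presence of 1 μM compound. Scale set by DMSO-treated wild-type-infected cells (0%) and Nef-defective virus (100% Nef-dependent effect). Cell Titer Blue measures cytotoxicity without virus.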

[3] = system: HIV-1NL4-3; experiment: HIV-1 infectivity assay in TZM-bl reporter cell line (LTR-luciferase, 48 h); type: cell-based; conditions: Human immunodeficiency virus 1, TZM-bl
Summary of the method: as §1

[4] = KD, M, Table 4, SPR fit 2-step induced fit, KD = koff/kon × koff2/(koff2 + kon2)
[5] = Nef NL4-3 Binding, SPR 2-state fitting KD, Table 1, 2-step induced-fit model
[6] = read-out: Nef NL4-3 Binding, SPR 1:1 or 2-site fitting KD2, Table 1, 2-site fit, second component
[7] = 1.0 μM, TZM-bl reporter cell line, Table 4, read-out: % Infectivity Inhibition
[8] = 48 h, Table 1, TZM-bl cells, 1 μM, 48 h, 100% = Nef-defective HIV-1, read-out: HIV-1 Infectivity % Inhibition Norm. to Δ-Nef @ 1 μM

SMILES | pKd [1] | pKd [1, 4] | pKd [1, 5] | T, minutes (residence time) ([1]; Table 4) | pKd [1, 6] | RU30/RUNef (extent of binding) [1] | % Cell Viability [2] [%] | Percent Viability @ 1 μM (TZM-bl cells) [2] [%] | inhibition at 1 µM [3, 7] [%] | inhibition at 1 µM [3, 8] [%] | Nef NL4-3 Binding, SPR 1:1 or 2-site fitting KD1 ([1]; Table 1)
O=C(C1CCOC1)N1CCC(c2nn(-c3nc4ccccc4[nH]3)c(O)c2CCc2ccc(F)cc2)CC1 (stereo not drawn) [Compound I-736, 1-(1H-1,3-benzodiazol-2-yl)-4-[2-(4-fluorophenyl)ethyl]-3-[1-(oxolane-3-carbonyl)piperidin-4-yl]-1H-pyrazol-5-ol] | 7.00 | 8.69 | 8.69 | 1.97E + 03 minutes | 5.71 | 1.02E- 02 | 96.0 | 96.0 | 7.5 | 7.5 | 
O=C(c1ccoc1)N1CCC(c2nn(-c3nc4ccccc4[nH]3)c(O)c2CCc2ccc(F)cc2)CC1 [Compound I-737, 1-(1H-1,3-benzodiazol-2-yl)-4-[2-(4-fluorophenyl)ethyl]-3-[1-(furan-3-carbonyl)piperidin-4-yl]-1H-pyrazol-5-ol] | 11.31 | 8.77 | 8.77 | 9.06E + 03 minutes | 5.40 | 1.36E- 02 | 93.0 | 93.0 | 0 | -4.8 | 
O=C1NC(=O)C(CC(=O)N2CCC(c3nn(-c4nc5ccccc5[nH]4)c(O)c3CCc3ccc(F)cc3)CC2)N1 (stereo not drawn) [Compound I-738, 5-(2-{4-[1-(1H-1,3-benzodiazol-2-yl)-4-[2-(4-fluorophenyl)ethyl]-5-hydroxy-1H-pyrazol-3-yl]piperidin-1-yl}-2-oxoethyl)imidazolidine-2,4-dione] |  |  |  |  |  |  |  | 100.4 |  | -9.9 | No Interaction
CN(C)C(=O)N1CCC(c2nn(-c3nc4ccccc4[nH]3)c(O)c2CCC2CCOCC2)CC1 [Compound I-739, 4-[1-(1H-1,3-benzodiazol-2-yl)-5-hydroxy-4-[2-(oxan-4-yl)ethyl]-1H-pyrazol-3-yl]-N,N-dimethylpiperidine-1-carboxamide] |  |  |  |  |  |  |  | 100.0 |  | -7 | No Interaction
COC(=O)N1CCC(c2nn(-c3nc4ccccc4[nH]3)c(O)c2CCc2ccc(F)cc2)CC1 [Compound I-740, methyl 4-[1-(1H-1,3-benzodiazol-2-yl)-4-[2-(4-fluorophenyl)ethyl]-5-hydroxy-1H-pyrazol-3-yl]piperidine-1-carboxylate] | 6.80 | 6.26 | 6.26 | 1.26E + 01 minutes | 5.47 | 7.81E- 03 | 89.8 | 89.8 | 39.1 | 39.1 | 
O=S(=O)(c1cccnc1)N1CCC(c2nn(-c3nc4ccccc4[nH]3)c(O)c2CCc2ccc(F)cc2)CC1 [Compound I-742, 1-(1H-1,3-benzodiazol-2-yl)-4-[2-(4-fluorophenyl)ethyl]-3-[1-(pyridine-3-sulfonyl)piperidin-4-yl]-1H-pyrazol-5-ol] |  | 11.84 | 11.84 |  | 4.25 | 2.76E- 03 | 77.3 | 77.3 | 100 | 125 | 
CC(=O)N1CCC(c2nn(-c3nc4ccccc4[nH]3)c(O)c2Cc2ccc(F)c(F)c2)CC1 [Compound I-744, 1-{4-[1-(1H-1,3-benzodiazol-2-yl)-4-[(3,4-difluorophenyl)methyl]-5-hydroxy-1H-pyrazol-3-yl]piperidin-1-yl}ethan-1-one] | 7.63 | 5.71 | 5.71 | 5.61E + 00 minutes | 5.14 | 4.92E- 03 | 98.2 | 98.2 | 51.2 | 51.2 | 
CC(C)(O)C(=O)N1CCC(c2nn(-c3nc4ccccc4[nH]3)c(O)c2CCc2ccc(F)cc2)CC1 [Compound I-745, 1-{4-[1-(1H-1,3-benzodiazol-2-yl)-4-[2-(4-fluorophenyl)ethyl]-5-hydroxy-1H-pyrazol-3-yl]piperidin-1-yl}-2-hydroxy-2-methylpropan-1-one] | 5.00 |  |  |  |  |  |  | 100.0 |  | 23.8 | 
